# Results reported in paper PMC10222270, “Natural Product-Based Screening for Lead Compounds Targeting SARS CoV-2 M^pro” (Pharmaceuticals, 2023).
# Several values for one entry are separate records, joined by “and”; a condition that tells them apart may be missing. Identical values can stand only once.
# Molecular target: T1, SARS CoV-2 M^pro (Severe acute respiratory syndrome coronavirus 2, UniProt P0DTD1)
# T1 construct: The main protease (M^pro) is a part of the polyprotein chain, also named 3C-like protease; SUMO (cleaved yes); His; made in house; host or cells: Escherichia coli BL21(DE3)
# Assay: biochemical
# Format: biochemical
# Settings: for inhibition at 80 µM: read-out: Inhibition%(80μM)
Compound,Inhibition%(80μM),inhibition at 80 µM [%],result of retest over a concentration range (gradient concentrations)
CCCCCCCC/C=C\CCCCCCCCCCCC(=O)O [Erucic Acid],99.68% and 100.48%,101,–
C[C@@H]1CC[C@]2(C(=O)O)CC[C@]3(C)C(=CC[C@@H]4[C@@]5(C)CC[C@H](O[C@@H]6OC[C@H](O)[C@H](O)[C@H]6O)C(C)(C)[C@@H]5CC[C@]43C)[C@@H]2[C@]1(C)O [Ziyuglycoside II],70.21% and 74.61% and 47.27%,–,–
"CC(C)=CCC(OC(=O)C=C(C)C)C1=CC(=O)c2c(O)ccc(O)c2C1=O (stereo not drawn) [(β,β-Dimethylacryl)Shikonin]",82.39% and 82.91% and 82.80%,–,–
Tubuloside A,87.62% and 90.37% and 86.87%,–,–
CCCCCCCCCCCCCC(=O)O [Myristic Acid],82.11% and 84.30%,85,–
CC1=C(O)C(=O)C=C2C1=CC=C1[C@@]2(C)CC[C@@]2(C)[C@@H]3C[C@](C)(C(=O)O)CC[C@]3(C)CC[C@]12C [Celastrol],85.83% and 91.32%,89.6,–
Maleimide,103.98% and 104.37% and 103.27%,–,–
"O=C(O[C@@H]1Cc2c(O)cc(O)cc2O[C@H]1c1cc(O)c(O)c(O)c1)c1cc(O)c(O)c(O)c1 [(−)–gallocatechin gallate, (-)-Gallocatechin Gallate]",102.08% and 101.74%,101,–
CCCCCC/C=C\CCCCCCCC(=O)O [Palmitoleic Acid],103.78% and 102.80%,103,–
"Oc1cc2c(cc1O)[C@@H]1c3ccc(O)c(O)c3OC[C@]1(O)C2 [hematoxylin, Hematoxylin]",103.56% and 103.03%,104,–
O=C(O)c1ccc2c(c1)C(=O)c1ccccc1C2=O [Anthraquinone-2-Carboxylic Acid],84.57%,85.4,–
O=C(O[C@@H]1O[C@@H]2COC(=O)c3cc(O)c(O)c(O)c3-c3c(cc(O)c(O)c3O)C(=O)O[C@H]([C@H]1O)[C@@H]2O)c1cc(O)c(O)c(O)c1 [Corilagin],101.84% and 101.22%,101,–
CC(=O)O[C@H]1[C@H](OCCc2ccc(O)c(O)c2)O[C@H](CO)[C@@H](OC(=O)/C=C/c2ccc(O)c(O)c2)[C@@H]1O[C@@H]1O[C@@H](C)[C@H](O)[C@@H](O)[C@H]1O [2'-Acetylacteoside],93.37% and 90.77%,90.6,–
Harmol,74.50% and 81.33% and 79.31%,–,–
"CC1=CC(=O)C=C(C)C1=O [2,6-Dimethylbenzoquinone]",101.34% and 101.15%,102,–
Echinacoside,93.62% and 90.06% and 89.84%,–,–
CC(C)=CCC[C@]1(C)C=Cc2c(O)c3c(c(CC=C(C)C)c2O1)O[C@]12C(=C[C@@H]4C[C@H]1C(C)(C)O[C@@]2(C/C=C(/C)C(=O)O)C4=O)C3=O [Gambogic Acid],78.61% and 79.43%,78.5,–
Cc1ccc(O)c(O)c1 [4-Methylcatechol],102.51% and 102.92%,103,–
CCCCC/C=C\C/C=C\C/C=C\C/C=C\CCCC(=O)O [Arachidonic Acid],76.72% and 73.70%,82.2,–
O=C1O[C@H]2[C@@H]3OC(=O)c4cc(O)c(O)c(O)c4-c4c(O)c(O)c5oc(=O)c6c(c(O)c(O)c7oc(=O)c4c5c76)-c4c(cc(O)c(O)c4O)C(=O)OC[C@H]3OC(O)[C@@H]2OC(=O)c2cc(O)c(O)c(O)c2-c2c1cc(O)c(O)c2O (mixture of isomers) [Punicalagin],73.51% and 73.40%,75,–
O=C1O[C@H]2[C@@H]3OC(=O)c4cc(O)c(O)c(O)c4-c4c(cc(O)c(O)c4O)C(=O)OC[C@H]2O[C@@H](OC(=O)c2cc(O)c(O)c(O)c2)[C@@H]3OC(=O)c2cc(O)c(O)c3c2[C@@H]2C1=CC(=O)[C@](O)(O3)C2(O)O [Geraniin],70.07% and 71.11%,71.6,–
C[n+]1cc2c3c(ccc2c2ccc4cc5c(cc4c21)OCO5)OCO3 [Sanguinarine chloride],108.15%,108,–
O=C(/C=C/c1ccc(O)c(O)c1)OC[C@H]1O[C@@H](OCCc2ccc(O)c(O)c2)[C@H](O)[C@@H](O[C@@H]2O[C@H](CO)[C@@H](O)[C@H](O)[C@H]2O)[C@@H]1O [Plantainoside D],99.79% and 99.90%,101,–
C[C@@H]1O[C@@H](OC[C@H]2O[C@@H](OCCc3ccc(O)c(O)c3)[C@H](O)[C@@H](O)[C@@H]2OC(=O)/C=C/c2ccc(O)c(O)c2)[C@H](O)[C@H](O)[C@H]1O [Forsythoside A],73.60% and 71.69%,77,–
"CC(=O)OC(C)(C)CC(=O)O[C@@H](CC=C(C)C)C1=CC(=O)c2c(O)ccc(O)c2C1=O [3-(Acetyloxy)-3-methylbutanoic acid (1S)-1-(1,4-dihydro-5,8-dihydroxy-1,4-dioxo-2-naphthalenyl)-4-methyl-3-pentenyl ester]",93.12% and 92.58% and 93.44%,–,–
"CC(C)=CCC(OC(=O)C=C(C)C)C1=CC(=O)c2c(O)ccc(O)c2C1=O (stereo not drawn) [β,β-dimethylacrylshikonin]",75.31% and 77.34% and 77.10%,–,–

Compound,Inhibition%(80μM),inhibition at 80 µM [%],result of retest over a concentration range (gradient concentrations)
CCCOC(=O)c1cc(O)c(O)c(O)c1 [Propyl Gallate],78.61% and 79.43%,78.5,–
NCCCN(CCCCNCCCNC(=O)CCc1ccc(O)c(O)c1)C(=O)CCc1ccc(O)c(O)c1 [Kukoamine B],103.22% and 104.32%,104,–
CC(=O)/C=C/c1ccc(O)c(O)c1 [Osmundacetone],98.31% and 98.46%,98.7,–
CCCCC/C=C\C/C=C\CCCCCCCCCC(=O)O [Eicosadienoic Acid],103.14% and 107.18%,105,–
(-)-Epigallocatechin,78.95% and 75.28% and 77.55%,–,–
O=C(/C=C/c1ccc(O)c(O)c1)O[C@H](Cc1ccc(O)c(O)c1)C(=O)O [Rosmarinic Acid],46.31% and 76.08% and 69.63%,–,–
C[C@@H]1O[C@@H](OC[C@H]2O[C@@H](OCCc3ccc(O)c(O)c3)[C@H](O)[C@@H](OC(=O)/C=C/c3ccc(O)c(O)c3)[C@@H]2O)[C@H](O)[C@H](O)[C@H]1O [Isoforsythiaside],100.44% and 101.30%,100,–
O=C(/C=C/c1ccc(O)c(O)c1)OC[C@H]1O[C@@H](OCCc2ccc(O)c(O)c2)[C@H](O)[C@@H](O)[C@@H]1O [Desrhamnosyl Isoacteoside],93.35% and 94.40% and 92.55%,–,–
CCCCCCCC/C=C\CCCCCCCCCCCCCC(=O)O [Nervonic Acid],89.75% and 93.14%,93.6,–
C=C1C(=O)[C@]23[C@H](O)[C@H]1CC[C@H]2[C@@]12CO[C@]3(O)[C@@H](O)[C@@H]1C(C)(C)CC[C@@H]2O [Oridonin],83.80% and 85.60%,84.3,–
O=C(OC[C@H]1O[C@@H](OC(=O)c2cc(O)c(O)c(OC(=O)c3cc(O)c(O)c(O)c3)c2)[C@H](OC(=O)c2cc(O)c(O)c(OC(=O)c3cc(O)c(O)c(O)c3)c2)[C@@H](OC(=O)c2cc(O)c(O)c(OC(=O)c3cc(O)c(O)c(O)c3)c2)[C@@H]1OC(=O)c1cc(O)c(O)c(OC(=O)c2cc(O)c(O)c(O)c2)c1)c1cc(O)c(O)c(OC(=O)c2cc(O)c(O)c(O)c2)c1 [Tannic Acid],88.66% and 87.66%,89.6,–
O=C(O)[C@H]1O[C@@H](Oc2cc3oc(-c4ccccc4)cc(=O)c3c(O)c2O)[C@H](O)[C@@H](O)[C@@H]1O [Baicalin],72.02%,77.5,–
O=c1cc(-c2ccc(O)cc2)oc2cc(O)c(O)c(O)c12 [Scutellarein],85.01% and 83.89%,84.1,–
CCCCCCCCCCCC1=C(O)C(=O)C=C(O)C1=O [Embelin],89.75% and 99.35%,103,–
CCCCCCCC/C=C\CCCCCCCC(=O)O [Oleic Acid],104.37% and 103.27%,104,–
C/C=C1/[C@H](O[C@@H]2O[C@H](CO)[C@@H](O)[C@H](O)[C@H]2O)OC=C(C(=O)OC)[C@H]1CC(=O)OCCc1ccc(O)c(O)c1 [Oleuropein],97.72%,96.6,–
O=c1oc2c(O)cc(O)cc2c2oc3cc(O)c(O)cc3c12 [Isodemethylwedelolacton],99.38% and 99.79%,99.7,–
CCCCCCCCCCCCCCC(=O)O [Pentadecanoic Acid],92.58% and 91.46%,92.3,–
C[C@@H]1O[C@@H](OC[C@H]2O[C@@H](OCCc3ccc(O)c(O)c3)[C@H](O)[C@@H](O)[C@@H]2O)[C@H](O)[C@H](O)[C@H]1O [Forsythoside E],102.62% and 100.37%,103,–
"O=C(/C=C/c1ccc(O)c(O)c1)O[C@@H]1C[C@@](OC(=O)/C=C/c2ccc(O)c(O)c2)(C(=O)O)C[C@@H](O)[C@@H]1O [1,5-Dicaffeoylquinic Acid]",75.61% and 71.24%,74.6,–
O=C(O)[C@H]1O[C@@H](Oc2cc3oc(-c4ccc(O)cc4)cc(=O)c3c(O)c2O)[C@H](O)[C@@H](O)[C@@H]1O [Breviscapin],78.06% and 77.78%,66,–
"CC(C)=CCC/C(C)=C/Cc1cc(-c2coc3cc(O)ccc3c2=O)ccc1O [corylifol A, Corylifol A]",100.01% and 99.99%,100,unable to generate a whole curve within the concentration range
CC(C)c1cc2c(c(O)c1O)[C@@]13CCCC(C)(C)[C@@H]1C[C@@H]2OC3=O [Carnosol],73.35% and 80.59%,74.5,–
Oc1ccc2c(c1)OC[C@]1(O)Cc3cc(O)c(O)cc3[C@H]21 [Brazilin],101.06% and 101.28%,101,–
"O=C(O)Cc1ccc(O)c(O)c1 [3,4-Dihydroxyphenylacetic Acid]",71.59% and 70.57%,72.4,–
